Source: patent publication US6855812B2, “P-glycoproteins and uses thereof” (Becton, Dickinson and Company, priority 2001, dated 2005)

Test system: rhesus monkey PGP
Assay: Polarization of vinblastine transport in Transwells, rhesus monkey PGP transfected LLC-PK1 cell monolayers
Details: PGP transfected LLC-PK1 cells, compared with control cells; vinblastine 0.1 μM
From the text: Rhesus monkey PGP cDNA (SEQ ID NO:1) is introduced into a clonal population of LLC-PK1 cells in a vector that confers resistance to hygromycin B. LLC-PK1 cells are obtained from the American Type Culture Collections and are propagated in Medium 199 supplemented to 7% with fetal bovine serum. LLC-PK1 cells are recloned prior to transfection in order to assure homogeneity of the cell population. Briefly, rhesus monkey PGP cDNA is incorporated into the p222CMV vector. […] The PGP cDNA is under the control of the cytomegalovirus (CMV) immediate early promoter. The vector confers resistance to hygromycin B. Cells (in 0.4 mL) and DNA (10 to 20 μg) were transfected by electroporation using a BTX Electro cell manipulator model 600 using a 2 mm gap cell, 100V, 2500 μF capacitance and 72 ohm resistance. […] Expression of PGP is measured by the polarization of vinblastine (0.1 μM) transport in Transwells™.
LLC-PK1 cell based transport studies are conducted in 24 well Transwells™ (Corning Costar, Catalog number 3415). […] Transport is measured under sink conditions in both the apical to basolateral (A to B) and basolateral to apical (B to A) directions. […] Quantitation of the amount of compound transported is by liquid scintillation counting (vinblastine) or HPLC with UV or mass spectrometric detection.
Functional expression of rhesus monkey PGP is measured by the polarization of transport of vinblastine.

Question: How did the “B to A/A to B ratio (polarization of transport)” value turn out when `CC[C@]1(O)C[C@@H]2CN(CCc3c([nH]c4ccccc34)[C@@](C(=O)OC)(c3cc4c(cc3OC)N(C)[C@H]3[C@@](O)(C(=O)OC)[C@H](OC(C)=O)[C@]5(CC)C=CCN6CC[C@]43[C@@H]65)C2)C1` [vinblastine] was run?
Answer: much higher ratio
